In patent EP4389751A1, “HETEROCYCLIC COMPOUNDS AND USES THEREOF” (Kumquat Biosciences Inc., priority 2021, dated 2024):
Like-named read-outs stand apart in the source and are kept apart here.

How the values were obtained:
K-Ras G12S = target: T1, K-Ras G12S (Homo sapiens, UniProt P01116, G12S); assay: HTRF assay of the K-Ras / SOS1 interaction; format: biochemical; details: IC50 (against K-Ras G12D) to IC50 (against K-Ras G12S)
T1 construct: made in house; host or cells: E. coli (e.g., BL21 (DE3))
Summary of the method: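 Compounds (duplicates, 10 µM to 0.01 µM) were incubated ≥~10 min with Eu-labelled GST-K-Ras G12S and XL665-labelled His-hSOS1 in HEPES pH 7.4 buffer containing NaCl, DTT, BSA and Igepal. Disruption measured as HTRF emission ratio 665/620 nm, fitted to IC50.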

A549 cells = assay: Cell proliferation assay (CellTiter-Glo), K-Ras G12S cells; format: cell-based; details: Homo sapiens, A549, A549 cells (K-Ras G12S), read-out: Inhibition of A549 Cells (IC50)
Procedure: A549 (ATCC CRL-185) and LS123 (ATCC CRL-255) cell lines comprise a G12S mutation and can be used to assess Ras cellular signaling in vitro, e.g., in response to the compounds herein. A549 culture medium is prepared with RPMI-1640 and 10% heat-inactivated FBS. LS123 culture medium is prepared with RPMI-1640 and 10% heat-inactivated FBS. A CellTiter-Glo (CTG) luminescent based assay (Promega) is used to assess growth of the cells, as a measurement of the ability of the compounds herein to inhibit Ras signaling in the cells. The cells (e.g., 800 per well) are seeded in their respective culture medium in standard tissue culture-treated 384-well format plates (Falcon #08-772-116) or ultra-low attachment surface 384-well format plates (S-Bio # MS-9384WZ). The day after plating, cells are treated with a dilution series (e.g., a 10 point 3-fold dilution series) of the compounds herein (e.g., approximately 40 µl final volume per well). Cell viability can be monitored (e.g., approximately 6 days later) according to the manufacturer's recommended instructions, where the CellTiter-Glo reagent is added (e.g., approximately 10 µl), vigorously mixed, covered, and placed on a plate shaker (e.g., approximately for 20 min) to ensure sufficient cell lysis prior to assessment of luminescent signal. The IC50 values are determined using the four parameter fit. The resulting IC50 value is a measurement of the ability of the compounds herein to reduce cell growth of Ras-driven cells (e.g., tumor cell lines) in vitro and/or in vivo.

GP2D cells = assay: Cell proliferation assay (CellTiter-Glo), K-Ras G12D cells; format: cell-based; details: read-out: Inhibition of GP2D Cells (IC50)
Summary of the method: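 CellTiter-Glo luminescence, taken roughly 5 days after dosing, measured growth of G12D-mutant GP2D cells in DMEM/2 mM glutamine/10% FBS. Compound dilution series (e.g., 9 points, 3-fold) added the day after plating. Four-parameter fitting gave IC50.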

[1] = target: T2, KRAS protein (His-tagged GDP-loaded G12S 1-169) (Homo sapiens, UniProt P01116, G12S); assay: Covalent modification of KRAS protein, intact-protein LC-MS; format: binding; details: 24hrs at room temperature, KRAS protein ~2 µM
T2 construct: His-tagged GDP-loaded G12S 1-169
Summary of the method: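 Percent covalent modification derives from deconvoluted intact-mass intensities of compound-adducted versus unmodified KRAS, measured by LC-ESI-MS. Before analysis, ~2 µM GDP-loaded His-KRAS 1-169 was exposed to compound for 24 h at room temperature and acidified with formic acid.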

| IC50 (A549 cells; bin 500 nM to 5 µM) | IC50 (A549 cells; bin ≤ 500 nM) | Compound | Ratio of IC50 KRAS G12D vs. IC50 KRAS G12S (K-Ras G12S) | IC50 (GP2D cells; GP2D cells (K-Ras G12D)) | % G12S Modification at 24 hr. [1] | IC50 (GP2D cells; GP2d) |
| --- | --- | --- | --- | --- | --- | --- |
| 500 to 5000 nM | – | N#Cc1c(N)sc2c(F)ccc(-c3c(Cl)cc4c(N5CCC6CN(C(=O)Nc7ncccn7)CCC65)nc(OC[C@@]56CCCN5C[C@H](F)C6)nc4c3F)c12 (single isomer, unassigned) [Compound A271] | A (A: indicates that the ratio of IC50 against KrasG12D vs. IC50 against KrasG12S is 1-fold or greater) | – | – | – |
| 500 to 5000 nM | – | Nc1nc2c(-c3c(Cl)cc4c(N5CC6CN(C(=O)n7cncn7)C6C5)nc(OC[C@@]56CCCN5C[C@H](F)C6)nc4c3F)ccc(F)c2s1 (stereo partly drawn) [Compound A177, (3-(7-(2-amino-7-fluorobenzo[d]thiazol-4-yl)-6-chloro-8-fluoro-2-(((2R,7aS)-2-fluorotetrahydro-1H-pyrrolizin-7a(5H)-yl)methoxy)quinazolin-4-yl)-3,6-diazabicyclo[3.2.0]heptan-6-yl)(1H-1,2,4-triazol-1-yl)methanone] | – | ≤ 1000 nM | – | – |
| – | ≤ 500 nM | Cc1nc(C)n(C(=O)N2CC3(CCCCN(c4nc(OC[C@@]56CCCN5C[C@H](F)C6)nc5c(F)c(-c6ccc(F)c7sc(N)c(C#N)c67)c(Cl)cc45)C3)C2)n1 [Compound A116, 2-amino-4-(6-chloro-4-(2-(3,5-dimethyl-1H-1,2,4-triazole-1-carbonyl)-2,6-diazaspiro[3.6]decan-6-yl)-8-fluoro-2-(((2R,7aS)-2-fluorotetrahydro-1H-pyrrolizin-7a(5H)-yl)methoxy)quinazolin-7-yl)-7-fluorobenzo[b]thiophene-3-carbonitrile] | – | ≤ 1000 nM | – | – |
| – | – | Nc1nc2c(-c3c(Cl)cc4c(N5CC6CN(C(=O)n7cncn7)CC6C5)nc(OC[C@@]56CCCN5C[C@H](F)C6)nc4c3F)ccc(F)c2s1 (stereo partly drawn) [Compound A127, (5-(7-(2-amino-7-fluorobenzo[d]thiazol-4-yl)-6-chloro-8-fluoro-2-(((2R,7aS)-2-fluorotetrahydro-1H-pyrrolizin-7a(5H)-yl)methoxy)quinazolin-4-yl)hexahydropyrrolo[3,4-c]pyrrol-2(1H)-yl)(1H-1,2,4-triazol-1-yl)methanone] | A (A: indicates that the ratio of IC50 against KrasG12D vs. IC50 against KrasG12S is 1-fold or greater) | 1000 to 10000 nM | ++ (++ indicates between about 1%- 20% labelling) | – |
| – | – | N#Cc1cnn(C(=O)N2CCN(c3nc(OC[C@@]45CCCN4C[C@H](F)C5)nc4c(F)c(-c5ccc(F)c6sc(N)nc56)c(Cl)cc34)CC2)c1 [Compound A252, 1-(4-(7-(2-amino-7-fluorobenzo[d]thiazol-4-yl)-6-chloro-8-fluoro-2-(((2R,7aS)-2-fluorotetrahydro-1H-pyrrolizin-7a(5H)-yl)methoxy)quinazolin-4-yl)piperazine-1-carbonyl)-1H-pyrazole-4-carbonitrile] | A (A: indicates that the ratio of IC50 against KrasG12D vs. IC50 against KrasG12S is 1-fold or greater) | 1000 to 10000 nM | +++ (+++ indicates greater than 20% labelling) | – |
| – | – | Nc1nc2c(-c3c(Cl)cc4c(N5CCC56CCCN(C(=O)n5cncn5)CC6)nc(OC[C@@]56CCCN5C[C@H](F)C6)nc4c3F)ccc(F)c2s1 (stereo partly drawn) [Compound A209, (1-(7-(2-amino-7-fluorobenzo[d]thiazol-4-yl)-6-chloro-8-fluoro-2-(((2R,7aS)-2-fluorotetrahydro-1H-pyrrolizin-7a(5H)-yl)methoxy)quinazolin-4-yl)-1,7-diazaspiro[3.6]decan-7-yl)(1H-1,2,4-triazol-1-yl)methanone] | A (A: indicates that the ratio of IC50 against KrasG12D vs. IC50 against KrasG12S is 1-fold or greater) | 1000 to 10000 nM | ++ (++ indicates between about 1%- 20% labelling) | – |
| – | – | Nc1nc2c(-c3c(Cl)cc4c(N5CCC56CCCN(C(=O)n5cncn5)C6)nc(OCC56CCCN5CC(F)C6)nc4c3F)ccc(F)c2s1 (stereo not drawn) [Compound A197, (1-(7-(2-amino-7-fluorobenzo[d]thiazol-4-yl)-6-chloro-8-fluoro-2-((2-fluorotetrahydro-1H-pyrrolizin-7a(5H)-yl)methoxy)quinazolin-4-yl)-1,6-diazaspiro[3.5]nonan-6-yl)(1H-1,2,4-triazol-1-yl)methanone] | A (A: indicates that the ratio of IC50 against KrasG12D vs. IC50 against KrasG12S is 1-fold or greater) | 1000 to 10000 nM | +++ (+++ indicates greater than 20% labelling) | – |
| – | – | Nc1nc2c(-c3c(Cl)cc4c(N5CCOC6(CCN(C(=O)n7cncn7)CC6)C5)nc(OCC56CCCN5C[C@H](F)C6)nc4c3F)ccc(F)c2s1 (stereo partly drawn) [Compound A243, (4-(7-(2-amino-7-fluorobenzo[d]thiazol-4-yl)-6-chloro-8-fluoro-2-(((2R)-2-fluorotetrahydro-1H-pyrrolizin-7a(5H)-yl)methoxy)quinazolin-4-yl)-1-oxa-4,9-diazaspiro [5.5]undecan-9-yl)(1H-1,2,4-triazol-1-yl)methanone] | A (A: indicates that the ratio of IC50 against KrasG12D vs. IC50 against KrasG12S is 1-fold or greater) | 1000 to 10000 nM | +++ (+++ indicates greater than 20% labelling) | – |
| – | – | Nc1nc2c(-c3c(Cl)cc4c(N[C@H]5C[C@H]6CC[C@@H](C5)N6C(=O)n5cncn5)nc(OC[C@@]56CCCN5C[C@H](F)C6)nc4c3F)ccc(F)c2s1 [Compound A207, ((1R,3r,5S)-3-((7-(2-amino-7-fluorobenzo[d]thiazol-4-yl)-6-chloro-8-fluoro-2-(((2R,7aS)-2-fluorotetrahydro-1H-pyrrolizin-7a(5H)-yl)methoxy)quinazolin-4-yl)amino)-8-azabicyclo[3.2.1]octan-8-yl)(1H-1,2,4-triazol-1-yl)methanone] | A (A: indicates that the ratio of IC50 against KrasG12D vs. IC50 against KrasG12S is 1-fold or greater) | – | +++ (+++ indicates greater than 20% labelling) | 1000 to 10000 nM |
| – | – | Nc1nc2c(-c3c(Cl)cc4c(N5CC6(CCN(C(=O)n7cncn7)C6)C5)nc(OC[C@@]56CCCN5C[C@H](F)C6)nc4c3F)ccc(F)c2s1 [Compound A279, (2-(7-(2-amino-7-fluorobenzo[d]thiazol-4-yl)-6-chloro-8-fluoro-2-(((2R,7aS)-2-fluorotetrahydro-1H-pyrrolizin-7a(5H)-yl)methoxy)quinazolin-4-yl)-2,6-diazaspiro[3.4]octan-6-yl)(1H-1,2,4-triazol-1-yl)methanone] | A (A: indicates that the ratio of IC50 against KrasG12D vs. IC50 against KrasG12S is 1-fold or greater) | 1000 to 10000 nM | +++ (+++ indicates greater than 20% labelling) | – |
| – | – | Nc1nc2c(-c3c(Cl)cc4c(N5CCCC6(CCN(C(=O)n7cncn7)C6)C5)nc(OC[C@@]56CCCN5C[C@H](F)C6)nc4c3F)ccc(F)c2s1 (stereo partly drawn) [Compound A104, (7-(7-(2-amino-7-fluorobenzo[d]thiazol-4-yl)-6-chloro-8-fluoro-2-(((2R,7aS)-2-fluorotetrahydro-1H-pyrrolizin-7a(5H)-yl)methoxy)quinazolin-4-yl)-2,7-diazaspiro[4.5]decan-2-yl)(1H-1,2,4-triazol-1-yl)methanone] | A (A: indicates that the ratio of IC50 against KrasG12D vs. IC50 against KrasG12S is 1-fold or greater) | 1000 to 10000 nM | ++ (++ indicates between about 1%- 20% labelling) | – |
